Reference: PubChem BioAssay (NCI)
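Cells were grown in 96-well plates and exposed to each compound for 48 hours at five concentrations; endpoints were interpolated linearly between bracketing concentrations, or set to the highest concentration if not reached. The concentration for 50% growth inhibition is given as GI50. Definition used: TGI = concentration required for complete inhibition of growth.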

How the values were obtained:
Assay in all cases: NCI anticancer screen, dose series, 48 h
786-0 renal = tested on: 786-0 renal
A498 renal = tested on: A498 renal
A549 NSCLC = tested on: A549 NSCLC
ACHN renal = tested on: ACHN renal
BT-549 breast = tested on: BT-549 breast
CAKI-1 renal = tested on: CAKI-1 renal
CCRF-CEM leukemia = tested on: CCRF-CEM leukemia
COLO 205 colon = tested on: COLO 205 colon
DU-145 prostate = tested on: DU-145 prostate
EKVX NSCLC = tested on: EKVX NSCLC
HCC-2998 colon = tested on: HCC-2998 colon
HCT-116 colon = tested on: HCT-116 colon
HCT-15 colon = tested on: HCT-15 colon
HL-60(TB) leukemia = tested on: HL-60(TB) leukemia
HOP-62 NSCLC = tested on: HOP-62 NSCLC
HOP-92 NSCLC = tested on: HOP-92 NSCLC
HT29 colon = tested on: HT29 colon
IGROV1 ovarian = tested on: IGROV1 ovarian
K-562 leukemia = tested on: K-562 leukemia
KM12 colon = tested on: KM12 colon
LOX IMVI melanoma = tested on: LOX IMVI melanoma
M14 melanoma = tested on: M14 melanoma
MALME-3M melanoma = tested on: MALME-3M melanoma
MCF7 breast = tested on: MCF7 breast
MDA-MB-231 breast = tested on: MDA-MB-231 breast
MDA-MB-435 = tested on: MDA-MB-435
MDA-MB-468 breast = tested on: MDA-MB-468 breast
MOLT-4 leukemia = tested on: MOLT-4 leukemia
NCI-H226 lung = tested on: NCI-H226 lung
NCI-H23 lung = tested on: NCI-H23 lung
NCI-H460 lung = tested on: NCI-H460 lung
NCI-H522 lung = tested on: NCI-H522 lung
NCI/ADR-RES ovarian = tested on: NCI/ADR-RES ovarian
OVCAR-3 ovarian = tested on: OVCAR-3 ovarian
OVCAR-4 ovarian = tested on: OVCAR-4 ovarian
OVCAR-5 ovarian = tested on: OVCAR-5 ovarian
OVCAR-8 ovarian = tested on: OVCAR-8 ovarian
PC-3 prostate = tested on: PC-3 prostate
RPMI-8226 leukemia = tested on: RPMI-8226 leukemia
RXF 393 renal = tested on: RXF 393 renal
SF-268 CNS = tested on: SF-268 CNS
SF-295 CNS = tested on: SF-295 CNS
SF-539 CNS = tested on: SF-539 CNS
SK-MEL-28 melanoma = tested on: SK-MEL-28 melanoma
SK-MEL-5 melanoma = tested on: SK-MEL-5 melanoma
SK-OV-3 ovarian = tested on: SK-OV-3 ovarian
SN12C renal = tested on: SN12C renal
SNB-19 CNS = tested on: SNB-19 CNS
SNB-75 CNS = tested on: SNB-75 CNS
SR leukemia = tested on: SR leukemia
SW-620 colon = tested on: SW-620 colon
T-47D breast = tested on: T-47D breast
TK-10 renal = tested on: TK-10 renal
U251 CNS = tested on: U251 CNS
UACC-257 melanoma = tested on: UACC-257 melanoma
UACC-62 melanoma = tested on: UACC-62 melanoma
UO-31 renal = tested on: UO-31 renal

CC[C@]12C=CCN3CC[C@@]4(c5ccc(OC)cc5N(C)[C@H]4[C@@](O)(C(=O)OC)[C@@H]1OC(=O)CCCC[P+](c1ccc(C)cc1)(c1ccc(C)cc1)c1ccc(C)cc1)[C@@H]32
GI50 (786-0 renal): 902 nM
TGI (786-0 renal): 2370 nM
GI50 (A498 renal): 2090 nM
TGI (A498 renal): 5240 nM
GI50 (A549 NSCLC): 632 nM
TGI (A549 NSCLC): 2760 nM
GI50 (ACHN renal): 1800 nM
TGI (ACHN renal): 4590 nM
GI50 (BT-549 breast): 389 nM
TGI (BT-549 breast): 1150 nM
GI50 (CAKI-1 renal): 2850 nM
TGI (CAKI-1 renal): 7150 nM
GI50 (CCRF-CEM leukemia): 476 nM
TGI (CCRF-CEM leukemia): 2060 nM
GI50 (COLO 205 colon): 200 nM
TGI (COLO 205 colon): 384 nM
GI50 (DU-145 prostate): 728 nM
TGI (DU-145 prostate): 4310 nM
GI50 (EKVX NSCLC): 680 nM
TGI (EKVX NSCLC): 2590 nM
GI50 (HCC-2998 colon): 416 nM
TGI (HCC-2998 colon): 1510 nM
GI50 (HCT-116 colon): 342 nM
TGI (HCT-116 colon): 1460 nM
GI50 (HCT-15 colon): 2020 nM
TGI (HCT-15 colon): 4350 nM
GI50 (HL-60(TB) leukemia): 191 nM
TGI (HL-60(TB) leukemia): 560 nM
GI50 (HOP-62 NSCLC): 731 nM
TGI (HOP-62 NSCLC): 2000 nM
GI50 (HOP-92 NSCLC): 295 nM
TGI (HOP-92 NSCLC): 1160 nM
GI50 (HT29 colon): 268 nM
TGI (HT29 colon): 783 nM
GI50 (IGROV1 ovarian): 351 nM
TGI (IGROV1 ovarian): 1150 nM
GI50 (K-562 leukemia): 300 nM
TGI (K-562 leukemia): 1870 nM
GI50 (KM12 colon): 431 nM
TGI (KM12 colon): 1480 nM
GI50 (LOX IMVI melanoma): 541 nM
TGI (LOX IMVI melanoma): 1640 nM
GI50 (M14 melanoma): 558 nM
TGI (M14 melanoma): 1670 nM
GI50 (MALME-3M melanoma): 482 nM
TGI (MALME-3M melanoma): 1100 nM
GI50 (MCF7 breast): 278 nM
TGI (MCF7 breast): 1150 nM
GI50 (MDA-MB-231 breast): 238 nM
TGI (MDA-MB-231 breast): 654 nM
GI50 (MDA-MB-435): 472 nM
TGI (MDA-MB-435): 1520 nM
GI50 (MDA-MB-468 breast): 150 nM
TGI (MDA-MB-468 breast): 476 nM
GI50 (MOLT-4 leukemia): 451 nM
TGI (MOLT-4 leukemia): 1780 nM
GI50 (NCI-H226 lung): 336 nM
TGI (NCI-H226 lung): 1450 nM
GI50 (NCI-H23 lung): 512 nM
TGI (NCI-H23 lung): 1500 nM
GI50 (NCI-H460 lung): 498 nM
TGI (NCI-H460 lung): 1710 nM
GI50 (NCI-H522 lung): 296 nM
TGI (NCI-H522 lung): 1060 nM
GI50 (NCI/ADR-RES ovarian): 12000 nM
TGI (NCI/ADR-RES ovarian): 34400 nM
GI50 (OVCAR-3 ovarian): 425 nM
TGI (OVCAR-3 ovarian): 1560 nM
GI50 (OVCAR-4 ovarian): 636 nM
TGI (OVCAR-4 ovarian): 3770 nM
GI50 (OVCAR-5 ovarian): 592 nM
TGI (OVCAR-5 ovarian): 1530 nM
GI50 (OVCAR-8 ovarian): 1130 nM
TGI (OVCAR-8 ovarian): 2490 nM
GI50 (PC-3 prostate): 313 nM
TGI (PC-3 prostate): 1400 nM
GI50 (RPMI-8226 leukemia): 202 nM
TGI (RPMI-8226 leukemia): 1470 nM
GI50 (RXF 393 renal): 329 nM
TGI (RXF 393 renal): 1240 nM
GI50 (SF-268 CNS): 692 nM
TGI (SF-268 CNS): 2110 nM
GI50 (SF-295 CNS): 691 nM
TGI (SF-295 CNS): 1870 nM
GI50 (SF-539 CNS): 588 nM
TGI (SF-539 CNS): 1620 nM
GI50 (SK-MEL-28 melanoma): 437 nM
TGI (SK-MEL-28 melanoma): 1600 nM
GI50 (SK-MEL-5 melanoma): 590 nM
TGI (SK-MEL-5 melanoma): 1240 nM
GI50 (SK-OV-3 ovarian): 535 nM
TGI (SK-OV-3 ovarian): 1390 nM
GI50 (SN12C renal): 410 nM
TGI (SN12C renal): 1380 nM
GI50 (SNB-19 CNS): 342 nM
TGI (SNB-19 CNS): 1320 nM
GI50 (SNB-75 CNS): 242 nM
TGI (SNB-75 CNS): 854 nM
GI50 (SR leukemia): 365 nM
TGI (SR leukemia): 1500 nM
GI50 (SW-620 colon): 601 nM
TGI (SW-620 colon): 1960 nM
GI50 (T-47D breast): 305 nM
TGI (T-47D breast): 1960 nM
GI50 (TK-10 renal): 1040 nM
TGI (TK-10 renal): 2440 nM
GI50 (U251 CNS): 332 nM
TGI (U251 CNS): 1410 nM
GI50 (UACC-257 melanoma): 562 nM
TGI (UACC-257 melanoma): 1900 nM
GI50 (UACC-62 melanoma): 406 nM
TGI (UACC-62 melanoma): 1180 nM
GI50 (UO-31 renal): 2040 nM
TGI (UO-31 renal): 7110 nM
